The subject of one data set is femoral artery. Kind of data set: Femoral arterial blood flow, hind leg cooling model of Raynaud's disease (Experimental Example 5). It counts as in vivo, male SD rat. The method, then: (Lower limbs peripheral circulation disorder model due to hind leg cooling: Model of Raynaud's disease)
A catheter was inserted into left common carotid artery of a male SD rat (one group consisting of 5 rats) under anesthesia, and the arterial blood pressure was measured with a standard pressure transducer (manufactured by Nihon Koden. TP-200T, trade name) through a catheter attached to the artery. After isolating the left femoral artery from the peripheral connective tissue, a flow probe (HDP 10-20R: F 1.0 mm) of a Doppler blood flow meter (manufactured by Crystal Biotec Co., PD20, trade name) was attached thereto and was connected to the Doppler blood flow meter to measure the artery blood flow. After the operation, at the time that the state became stable, the left hind leg was exposed to a perfused solution at 10° C. to decrease the femoral arterial blood flow. After 30 minutes, 1 ml/kg of a 0.9% NaCl solution or 300 μg/kg of the test compound A was intravenously administered and the state was observed. In the case of Beraprost Na, continuous injection in an amount of […] was carried out after 30 minutes from cooling. The compounds to be used were each dissolved in a 0.9% NaCl solution.
The present model is disclosed, for example, in Nishio et al, "Effect of Beraprost Sodium on Peripheral Circulatory Disturbances Induced by Various Stimuli", Arzneim.-Forsch./Drug Res., 39 (II), Nr. 10 (1989), pp. 1229-1234. Note particularly the section "2.4. Sphygmometry in rat hind paw", at page 1230.

The test system of another data set is arterial blood pressure. On the set-up: species or system male SD rat. Conditions: rat, in vivo. How it is done:
(Lower limbs peripheral circulation disorder model due to hind leg cooling: Model of Raynaud's disease) […] TP-200T, trade name) through a catheter attached to the artery. […] After the operation, at the time that the state became stable, the left hind leg was exposed to a perfused solution at 10° C. to decrease the femoral arterial blood flow. […] In the case of Beraprost Na, continuous injection in an amount of […] was carried out after 30 minutes from cooling. […] The present model is disclosed, for example, in Nishio et al, "Effect of Beraprost Sodium on Peripheral Circulatory Disturbances Induced by Various Stimuli", Arzneim.-Forsch./Drug Res., 39 (II), Nr. 10 (1989), pp. 1229-1234. Note particularly the section "2.4. Sphygmometry in rat hind paw", at page 1230.

Regarding `CC#CCC(C)[C@H](O)/C=C/[C@@H]1[C@H]2c3cccc(CCCC(=O)O)c3O[C@H]2C[C@H]1O` (some centres unmarked) [Compound J, Beraprost Na, reference compound], the “Femoral Arterial Blood Flow change” value is on record as 1.116 Δ ml/min in the data set on femoral artery (0 min (before cooling and administration; 30 min = 0)); 0.252 Δ ml/min in the data set with femoral artery (40 min, given at 30 min: A 300 μg/kg i.v., J 0.3 μg/kg/ml continuous injection); 0.304 Δ ml/min in the data set with femoral artery (50 min, given at 30 min: A 300 μg/kg i.v., J 0.3 μg/kg/ml continuous injection); 0.368 Δ ml/min in the data set on femoral artery (60 min, given at 30 min: A 300 μg/kg i.v., J 0.3 μg/kg/ml continuous injection); 0.436 Δ ml/min in the data set on femoral artery (70 min, given at 30 min: A 300 μg/kg i.v., J 0.3 μg/kg/ml continuous injection); 0.372 Δ ml/min in the data set with femoral artery (80 min, given at 30 min: A 300 μg/kg i.v., J 0.3 μg/kg/ml continuous injection). In addition, the “Femoral Arterial Blood Flow change” value in the data set with femoral artery (90 min, given at 30 min: A 300 μg/kg i.v., J 0.3 μg/kg/ml continuous injection) is on record as 0.344 Δ ml/min. Further, the “Mean Arterial Pressure change” value in the data set with arterial blood pressure is given as 1.20 Δ mmHg.
